Reference: US20130252959A1, “NITRIC OXIDE DONORS IN THERAPY OF NITRIC OXIDE DEFICIENCY-INDUCED DISTURBANCES OF CEREBRAL MICROCIRCULATION” (West-Falische Wilhelms-Universitat Munster, priority 2010, published 2013)
Entries after “also recorded” stand apart in the source; their conditions may differ.

Assays:
CVS = conditions: cited from earlier work
CVS and ischemia = conditions: intrathecal, local or intraventricular application; humans or laboratory animal; cited from earlier work
[1] = tested on: rat cerebral arterioles and venules; conditions: He-Ne laser; cited from earlier work
SAH group = conditions: administered 48 hours after SAH was induced; cited from earlier work
[2] = in vivo; cited from earlier work
[3] = tested on: spontaneously hypertensive rats (SHRs); conditions: cited from earlier work
[4] = tested on: patients with SAH after aneurysmal rupture; test: Clinical outcome by modified NIH-SS and modified Rankin Scale at least three months after discharge; assay type: in vivo, human
From the text: The National Institutes of Health stroke scale (NIH-SS) is a graded neurological examination that assesses speech, language cognition, inattention, visual field abnormalities, motor and sensory impairments, and ataxia. The scale was developed for use in acute-stroke therapy trials and has since been widely used as a standard part of the assessment in clinical trials. This scale, along with many others, has been evaluated in its clinical usefulness in the assessment of the stroke patient. The NIH-SS permits a high-resolution evaluation of a patient's neurological status. To obtain the finding on the NIH-SS, various neurological aspects are investigated and assigned point scores. The total point score is a measure of the severity of the symptoms of stroke, the point score increasing with the severity of the symptoms. This rating scale is also suitable for monitoring the course of the symptoms after stroke and for quantifying the success of any treatment used. In general, it is possible to establish a correlation between the size of the infarct and the severity of the stroke as quantified by the stroke scale.
Rating scales such as the NIH-SS or the modified Rankin scale are generally used for the quantitative evaluation of the severity of a cerebral disorder, whether acute or under treatment.
CCT at the beginning and after treatment were analyzed independently by two experienced neuroradiologists and were scanned for development of delayed brain infarction. At least three months after discharge a modified NIH-SS and a modified Rankin Scale (mRS) for clinical follow up was assessed.
83 patients admitted to the Intensive Care Unit of the University Hospital of Munster, Germany, after spontaneous aneurysmal SAH were registered in an observational study. Seven patients died in the first 124 hours after admission, without detected CVS probably related to malignant brain edema and severity of initial SAH. These patients were excluded from further evaluation.
Out of 76 individuals 27 patients received Molsidomine i.v. in an individually up-titrated dosage with a target quantity of 3.5-10 mg/h dependent on systemic circulation reactions. The remaining 49 patients received standard therapy.
After a minimum of three months the modified NIH and modified Rankin status were determined in order to control clinical outcome of patients (NIH-SS and mRS).

[5] = tested on: patients with SAH after aneurysmal rupture; test: Spasm (CVS) related brain infarcts on CCT in SAH patients, Molsidomine in addition to standard therapy vs standard Nimodipine therapy; assay type: in vivo, human
Description: CCT at the beginning and after treatment were analyzed independently by two experienced neuroradiologists and were scanned for development of delayed brain infarction. At least three months after discharge a modified NIH-SS and a modified Rankin Scale (mRS) for clinical follow up was assessed. 83 patients admitted to the Intensive Care Unit of the University Hospital of Munster, Germany, after spontaneous aneurysmal SAH were registered in an observational study. […] These patients were excluded from further evaluation. […] Out of 76 individuals 27 patients received Molsidomine i.v. in an individually up-titrated dosage with a target quantity of 3.5-10 mg/h dependent on systemic circulation reactions. […] Within 24 h after admission to the ICU patients were treated with coil embolization and/or clipping. […] Appearance of CVS. Male and female patients with an age of 18 years and written informed consent for the additional application of Molsidomine. Spontaneous SAH after aneurysmal rupture and a clinical stage of Hunt and Hess grade Ito V. Exclusion criteria for patients were: No detected CVS. […] CCT and DSA images were independently reported by two experienced neuroradiologists for infarction and vasospasm. CVS related infarcts were diagnosed if hypodense lesions could be detected 72 h or later after therapeutic intervention or operation in comparison to the 24 h control CCT scan and being accompanied by clinical deterioration due to CVS or positive Doppler ultrasound or CVS in DSA.

[6] = tested on: patients with SAH after aneurysmal rupture; test: Side effects and monitoring of blood pressure (MAP), ICP and blood under Molsidomine i.v.
Description: In both groups blood pressure, intracranial pressure (ICP) and saturation measurement of blood oxygen were observed continuously. TCD was performed daily or on demand with investigation of the internal carotid artery (ACI), medial cerebral artery (MCA), anterior cerebral artery (ACA) and basilar artery (BA). For monitoring the clinical condition the GCS score (Glasgow Coma Score) was determined per hour
The drug used contains Molsidomine, as supplied by Sanofi-Aventis, Germany, in ampullae with 2 mg/molsidomine (Corvaton®). The dosage of Molsidomine was adapted to the systemic blood pressure.
The dosage was reduced if the MAP dropped below 65 mmHg despite infusion therapy (HES 6-10%) or a mild Arterenol® therapy (max dosage Arterenol® 0.1-0.2 μg/h, preferably at a dose of 0.1-0.3 mg/h or a dose of 0.1-0.2 μg/kg/min.). With increased need for Arterenol® the dosage of Molsidomine was reduced accordingly. Patients with cardiac low-output failure induced by preexistent cardiac failure, stop of perfusion during acute SAH itself or other reasons like sepsis received Molsidomine up-titrated in highest possible amount based on cardiac treatment or the treatment was interrupted for maximal 48 hours if Arterenol®-dosage escalated.
The treatment with Molsidimine was continued (either i.v. or subsequent orally 4×8 mg ret.) until mean flows in TCD were normalized. The duration of Molsodomine application was at least 8 days according to inclusion criteria: Appearance or presence of detectable CVS.

[7] = tested on: patients with SAH after aneurysmal rupture; test: CVS detected by TCD (trans-cranial doppler); assay type: in vivo, human
From the text: TCD (trans-cranial doppler) is a diagnostic procedure using ultrasound waves to measure blood flow through the major blood vessels of the brain. In particular, the purpose of this test is to detect any narrowing or blockage in arteries located at the base of the brain that may decrease or stop the flow of blood to the brain and increase blood flow velocities according to narrowed vessel diameter. The test is most useful at detecting decreased blood flow through narrow areas inside blood vessels. TCDs are especially useful for monitoring blood flow in the brain of stroke patients who are affected by brain swelling and vasospasm (which are cerebral blood vessel spasms).
The treatment with Molsidomine was applied if vasospasm was detected by TCD (mean flow […] resp. Lindegaard-Index >3) or DSA (narrowing of vessel diameter >50%).

[8] = after oral administration; cited from earlier work
[9] = tested on: patients after brain hemorrhage, in particular SAH; conditions: under Nimodipine therapy; cited from earlier work
[10] = infusion 3 min after MCA occlusion

COc1ccccc1Oc1c(NS(=O)(=O)c2ccc(C)cn2)nc(-c2ccnc(-c3nnn[nH]3)c2)nc1OCCO [Clazosentan]
treatment of CVS (CVS; in vivo): highly efficiency for the treatment of CVS | long-term outcome or clinical benefit (CVS; multicenter study): failed to show any effect on long-term outcome or clinical benefit

O=[N+]([O-])OCC(CO[N+](=O)[O-])O[N+](=O)[O-] [GTN, nitroglycerin]
effect on CVS and ischemia (CVS and ischemia): good prophylactic effect on CVS and ischemia

N=c1c[n+](N2CCOCC2)[n-]o1 [SIN-1, 3-morpholinosydnonimine]
thrombus formation [1]: antithrombotic effect | CBF (SAH group): increased CBF | plasma protein binding [2]: no relevant plasma protein binding | recovery of cerebral blood flow (CBF) ([3]; after MCA occlusion): enhanced the recovery of cerebral blood flow (CBF) | size of the infarct ([3]; after MCA occlusion): reduced the size of the infarct | infarct [3, 10]: reduced the infarct | recovery of CBF and EEG amplitude [3, 10]: enhanced the recovery of CBF and EEG amplitude

CCOC(=O)[N-]c1c[n+](N2CCOCC2)no1 [Molsidomine, N-ethoxycarbonyl-3-morpholinosydnonimine]
Mean NIH >3 months (without deaths) ([4]; Hunt & Hess grade III°): 3.62 | Mean mRS >3 months ([4]; Hunt & Hess grade III°): 1.75 | Mean NIH >3 months (without deaths) ([4]; Hunt & Hess grade II°): 1 | Mean mRS >3 months ([4]; Hunt & Hess grade II°): 1 | Mean NIH >3 months (without deaths) ([4]; Hunt & Hess grade IV°): 3.8 | Mean mRS >3 months ([4]; Hunt & Hess grade IV°): 1.6 | Mean NIH >3 months (without deaths) ([4]; Hunt & Hess grade I°): 0 | Mean mRS >3 months ([4]; Hunt & Hess grade I°): 1.75 | Mean NIH >3 months (without deaths) ([4]; Hunt & Hess grade V°): 17 | Mean mRS >3 months ([4]; Hunt & Hess grade V°): 4 | clinical condition and long term outcome in the follow up ([4]; SAH-survivors): impressive improvement of clinical condition and long term outcome | clinical deterioration ([4]; SAH-survivors): no clinical deterioration | patients partly in work process again or to be reintegrated soon ([4]; follow up, normally approx. 5% return to work): 5/27 | Spasmus related infarcts, Infarction (number of patients) ([5]; Hunt & Hess grade III°): 1 | Spasmus related infarcts, Infarction (number of patients) ([5]; Hunt & Hess grade II°): 0 | Spasmus related infarcts, Infarction (number of patients) ([5]; Hunt & Hess grade IV°): 1 | Spasmus related infarcts, Infarction (number of patients) ([5]; Hunt & Hess grade I°): 1 | Spasmus related infarcts, Infarction (number of patients) ([5]; Hunt & Hess grade V°): 0 | patients who developed CVS associated infarcts (share of group) ([5]; all Hunt & Hess grades): 11.1% | patients who developed vasospasm associated brain infarctions / patients of the group ([5]; all Hunt & Hess grades): 3/27 | patients who developed CVS associated infarcts (number) ([5]; all Hunt & Hess grades, groups of 49 (Nimodipine) and 27 (Molsidomine)): 3 | adverse / side effects ([6]; Molsidomine i.v., target 3.5-10 mg/h): No adverse side effects were observed; also recorded: did not show any relevant side effects; also recorded: no serious, untreatable (i.e. severe hypotension) adverse effects were observed | depression of MAP, maximum ([6]; even with higher dosage): ≤ 10 mmHg | depression of blood pressure (systolic) ([6]; even with higher dosage): 10-20 mmHg | effect of fast reduction of dosage ([6]; regredient after increased Molsidomine levels): on/off phenomena or a rebound | Blood stains ([6]; under Molsidomine): normal | ICP ([6]; under Molsidomine): did not increase for short or longer periods | MAP kept ([6]; under Molsidomine): 65-70 mmHg | effect in terminating CVS ([7]; judged from equal number of intra-arterial Nimodipine treatments per individual): weak effect | TCD-values (flow velocities) ([7]; under Molsidomine treatment): trend in Transcranial Doppeler (TCD)-values towards normal velocities | absorption [8]: completely absorbed

COCCOC(=O)C1=C(C)NC(C)=C(C(=O)OC(C)C)C1c1cccc([N+](=O)[O-])c1 (centres unmarked) [Nimodipine, 1,4-dihydro-2,6-dimethyl-4-(3-nitrophenyl)-3,5-pyridinedicarboxylic acid 2-methoxyethyl 1-methylethyl ester]
Mean NIH >3 months (without deaths) ([4]; Hunt & Hess grade III°): 10.6 | Mean mRS >3 months ([4]; Hunt & Hess grade III°): 3.75 | Mean NIH >3 months (without deaths) ([4]; Hunt & Hess grade II°): 0 | Mean mRS >3 months ([4]; Hunt & Hess grade II°): 3 | Mean NIH >3 months (without deaths) ([4]; Hunt & Hess grade IV°): 12.3 | Mean mRS >3 months ([4]; Hunt & Hess grade IV°): 4.3 | Mean NIH >3 months (without deaths) ([4]; Hunt & Hess grade I°): 0.5 | Mean mRS >3 months ([4]; Hunt & Hess grade I°): 1.6 | Mean NIH >3 months (without deaths) ([4]; Hunt & Hess grade V°): 38 (2 × exitus) | Mean mRS >3 months ([4]; Hunt & Hess grade V°): 5.7 | associated DINDs [9]: 27-37% | spasm-associated infarcts [9]: 20-30% | spasm-associated infarcts detected by advanced CT-technique [9]: up to 50% | spasm-related mortality and high-grade morbidity [9]: 30-40% | patients who developed vasospasm associated brain infarctions / patients of the group ([5]; all Hunt & Hess grades): 25/49
